Measurements from PubChem BioAssay (NCI).
Values joined by “and” are separate entries in the source; they are usually repeats but may differ in a detail not shown here. Identical values can stand only once.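 In this assay, cells in 96-well plates receive the compound at five concentrations for 48 hours. Endpoints are linearly interpolated between the surrounding concentrations. GI50 marks 50% less growth. Definition used: TGI = concentration required for complete inhibition of growth.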

Legend:
Assay in all cases: NCI anticancer screen, dose series, 48 h
MDA-MB-468 breast = system: MDA-MB-468 breast
786-0 renal = system: 786-0 renal
A498 renal = system: A498 renal
A549 NSCLC = system: A549 NSCLC
ACHN renal = system: ACHN renal
BT-549 breast = system: BT-549 breast
CAKI-1 renal = system: CAKI-1 renal
CCRF-CEM leukemia = system: CCRF-CEM leukemia
COLO 205 colon = system: COLO 205 colon
DU-145 prostate = system: DU-145 prostate
EKVX NSCLC = system: EKVX NSCLC
HCC-2998 colon = system: HCC-2998 colon
HCT-116 colon = system: HCT-116 colon
HCT-15 colon = system: HCT-15 colon
HL-60(TB) leukemia = system: HL-60(TB) leukemia
HOP-62 NSCLC = system: HOP-62 NSCLC
HOP-92 NSCLC = system: HOP-92 NSCLC
HS 578T breast = system: HS 578T breast
HT29 colon = system: HT29 colon
IGROV1 ovarian = system: IGROV1 ovarian
K-562 leukemia = system: K-562 leukemia
KM12 colon = system: KM12 colon
LOX IMVI melanoma = system: LOX IMVI melanoma
M14 melanoma = system: M14 melanoma
MALME-3M melanoma = system: MALME-3M melanoma
MCF7 breast = system: MCF7 breast
MDA-MB-435 = system: MDA-MB-435
MOLT-4 leukemia = system: MOLT-4 leukemia
NCI-H226 lung = system: NCI-H226 lung
NCI-H23 lung = system: NCI-H23 lung
NCI-H460 lung = system: NCI-H460 lung
NCI-H522 lung = system: NCI-H522 lung
NCI/ADR-RES ovarian = system: NCI/ADR-RES ovarian
OVCAR-3 ovarian = system: OVCAR-3 ovarian
OVCAR-4 ovarian = system: OVCAR-4 ovarian
OVCAR-5 ovarian = system: OVCAR-5 ovarian
OVCAR-8 ovarian = system: OVCAR-8 ovarian
PC-3 prostate = system: PC-3 prostate
RPMI-8226 leukemia = system: RPMI-8226 leukemia
RXF 393 renal = system: RXF 393 renal
SF-268 CNS = system: SF-268 CNS
SF-295 CNS = system: SF-295 CNS
SF-539 CNS = system: SF-539 CNS
SK-MEL-28 melanoma = system: SK-MEL-28 melanoma
SK-MEL-5 melanoma = system: SK-MEL-5 melanoma
SK-OV-3 ovarian = system: SK-OV-3 ovarian
SN12C renal = system: SN12C renal
SNB-19 CNS = system: SNB-19 CNS
SR leukemia = system: SR leukemia
SW-620 colon = system: SW-620 colon
T-47D breast = system: T-47D breast
TK-10 renal = system: TK-10 renal
U251 CNS = system: U251 CNS
UACC-257 melanoma = system: UACC-257 melanoma
UACC-62 melanoma = system: UACC-62 melanoma

COc1cc(C2C3=C(COC3=O)N(CCO)c3cc4c(cc32)CCC4)cc(OC)c1O (centres undefined)
GI50 (MDA-MB-468 breast): 0.0891 µM

COc1cc[nH]c1/C=C1\C(=O)Nc2ccc(F)c(C#CC3(O)CCOCC3)c21
GI50 (MDA-MB-468 breast): 0.71 µM
TGI (MDA-MB-468 breast): 2.9 µM

COc1ccc(/C=C\c2cc(OC)c(OC)c(OC)c2)cc1OP(=O)(O)O
GI50 (MDA-MB-468 breast): 0.0543 µM
TGI (MDA-MB-468 breast): > 100 µM

CCCCCCCCCCCCCCCC[N+]1(CC)CCCC1
GI50 (MDA-MB-468 breast): 0.184 µM
TGI (MDA-MB-468 breast): 0.799 µM

COC(=O)c1cc(Nc2ccc(O)c3c2C(=O)c2c([N+](=O)[O-])ccc(O)c2C3=O)cc(C(=O)OC)c1
GI50 (MDA-MB-468 breast): 16.5 µM
TGI (MDA-MB-468 breast): 98.5 µM

Cn1c(=O)n(-c2ccc(C(C)(C)C#N)cc2)c2c3cc(-c4cnc5ccccc5c4)ccc3ncc21
GI50 (MDA-MB-468 breast): 0.0118 µM and 0.00531 µM and < 0.0105 µM
TGI (MDA-MB-468 breast): 0.0505 µM and 0.0285 µM and 0.0642 µM

CC[C@]12C=CCN3CC[C@]4(C(=C(C(=O)OC)C1)Nc1cc(O)ccc14)[C@@H]32
GI50 (MDA-MB-468 breast): 9.38 µM
TGI (MDA-MB-468 breast): 44 µM

COc1ccc2nc3ccc(OC)cc3c(SCCCN)c2c1
GI50 (MDA-MB-468 breast): 1.4 µM
TGI (MDA-MB-468 breast): 2.94 µM

NS(=O)(=O)c1ccc(Nc2nc(Nc3ccccc3)nc(-n3nc(-c4ccccc4)cc3-c3ccccc3)n2)cc1
GI50 (MDA-MB-468 breast): 2.31 µM
TGI (MDA-MB-468 breast): 6.95 µM

Cc1nnc([S-])s1.[Au+].c1ccc([PH+](c2ccccc2)c2ccccc2)cc1
GI50 (MDA-MB-468 breast): 1.27 µM
TGI (MDA-MB-468 breast): 2.86 µM

COC(=O)[C@H](Cc1ccccc1)NC(=O)c1csc([C@@H](C[C@H](C(C)C)N(C)C(=O)[C@@H](NC(=O)[C@H]2CCCCN2C)C2CC2)OC(C)=O)n1
GI50 (MDA-MB-468 breast): 0.0441 µM
TGI (MDA-MB-468 breast): > 25 µM

COc1ccccc1C(=O)c1cnc(NC2CCN(S(C)(=O)=O)CC2)nc1N
GI50 (MDA-MB-468 breast): 7.79 µM
TGI (MDA-MB-468 breast): > 25 µM

O=C1OC(c2ccc(O)cc2)(c2ccc(O)cc2)c2cccc3cccc1c23
GI50 (MDA-MB-468 breast): 4.06 µM
TGI (MDA-MB-468 breast): 21.7 µM

COc1cccc(-c2nn(-c3ccccc3)cc2-c2ccnc(NCCNC(=O)Nc3ccc(Cl)c(Cl)c3)c2)c1
GI50 (MDA-MB-468 breast): 1.7 µM
TGI (MDA-MB-468 breast): 4.54 µM

C/C(=C(/c1ccc(O)cc1)c1ccc(OCCN2CCCC2)cc1)c1ccccc1
GI50 (MDA-MB-468 breast): 1.84 µM
TGI (MDA-MB-468 breast): 4.47 µM

O=C1Nc2ccc(Cl)cc2/C1=C/c1cccc(OCc2ccccn2)c1
GI50 (786-0 renal): 16.4 µM
TGI (786-0 renal): 31.1 µM
GI50 (A498 renal): 18.2 µM
TGI (A498 renal): 32.7 µM
GI50 (A549 NSCLC): 17.8 µM
TGI (A549 NSCLC): 38.2 µM
GI50 (ACHN renal): 15 µM
TGI (ACHN renal): 30 µM
GI50 (BT-549 breast): 14.1 µM
TGI (BT-549 breast): 27.7 µM
GI50 (CAKI-1 renal): 15.3 µM
TGI (CAKI-1 renal): 32 µM
GI50 (CCRF-CEM leukemia): 30.6 µM
TGI (CCRF-CEM leukemia): > 100 µM
GI50 (COLO 205 colon): 17.5 µM
TGI (COLO 205 colon): 33 µM
GI50 (DU-145 prostate): 17.8 µM
TGI (DU-145 prostate): 31.8 µM
GI50 (EKVX NSCLC): 8.43 µM
TGI (EKVX NSCLC): 21.1 µM
GI50 (HCC-2998 colon): 17.8 µM
TGI (HCC-2998 colon): 31.9 µM
GI50 (HCT-116 colon): 13 µM
TGI (HCT-116 colon): 27.2 µM
GI50 (HCT-15 colon): 13.7 µM
TGI (HCT-15 colon): 30.3 µM
GI50 (HL-60(TB) leukemia): 19.2 µM
TGI (HL-60(TB) leukemia): 52.5 µM
GI50 (HOP-62 NSCLC): 15.8 µM
TGI (HOP-62 NSCLC): 31.3 µM
GI50 (HOP-92 NSCLC): 14.7 µM
TGI (HOP-92 NSCLC): 46.2 µM
GI50 (HS 578T breast): 17.7 µM
TGI (HS 578T breast): 45.7 µM
GI50 (HT29 colon): 17.4 µM
TGI (HT29 colon): 32.8 µM
GI50 (IGROV1 ovarian): 15.7 µM
TGI (IGROV1 ovarian): 31.2 µM
GI50 (K-562 leukemia): 19 µM
TGI (K-562 leukemia): > 100 µM
GI50 (KM12 colon): 18.1 µM
TGI (KM12 colon): 33.8 µM
GI50 (LOX IMVI melanoma): 13.3 µM
TGI (LOX IMVI melanoma): 28.2 µM
GI50 (M14 melanoma): 16.3 µM
TGI (M14 melanoma): 31.2 µM
GI50 (MALME-3M melanoma): 15.4 µM
TGI (MALME-3M melanoma): 29 µM
GI50 (MCF7 breast): 7.15 µM
TGI (MCF7 breast): 20.7 µM
GI50 (MDA-MB-435): 18.4 µM
TGI (MDA-MB-435): 36 µM
GI50 (MDA-MB-468 breast): 11.9 µM
TGI (MDA-MB-468 breast): 25.5 µM
GI50 (MOLT-4 leukemia): 12.4 µM
TGI (MOLT-4 leukemia): 36.8 µM
GI50 (NCI-H226 lung): 16.3 µM
TGI (NCI-H226 lung): 38.5 µM
GI50 (NCI-H23 lung): 14.5 µM
TGI (NCI-H23 lung): 28.1 µM
GI50 (NCI-H460 lung): 18 µM
TGI (NCI-H460 lung): 34.5 µM
GI50 (NCI-H522 lung): 14.6 µM
TGI (NCI-H522 lung): 29.9 µM
GI50 (NCI/ADR-RES ovarian): 14.2 µM
TGI (NCI/ADR-RES ovarian): 34 µM
GI50 (OVCAR-3 ovarian): 16.1 µM
TGI (OVCAR-3 ovarian): 30.1 µM
GI50 (OVCAR-4 ovarian): 18.3 µM
TGI (OVCAR-4 ovarian): 54.1 µM
GI50 (OVCAR-5 ovarian): 15.9 µM
TGI (OVCAR-5 ovarian): 30.4 µM
GI50 (OVCAR-8 ovarian): 15.4 µM
TGI (OVCAR-8 ovarian): 30.3 µM
GI50 (PC-3 prostate): 19.4 µM
TGI (PC-3 prostate): 64.4 µM
GI50 (RPMI-8226 leukemia): 20 µM
TGI (RPMI-8226 leukemia): > 100 µM
GI50 (RXF 393 renal): 11.9 µM
TGI (RXF 393 renal): 24.5 µM
GI50 (SF-268 CNS): 17.6 µM
TGI (SF-268 CNS): 38.9 µM
GI50 (SF-295 CNS): 15.5 µM
TGI (SF-295 CNS): 29.1 µM
GI50 (SF-539 CNS): 16 µM
TGI (SF-539 CNS): 29.5 µM
GI50 (SK-MEL-28 melanoma): 16.8 µM
TGI (SK-MEL-28 melanoma): 30.5 µM
GI50 (SK-MEL-5 melanoma): 17 µM
TGI (SK-MEL-5 melanoma): 30.7 µM
GI50 (SK-OV-3 ovarian): 20.2 µM
TGI (SK-OV-3 ovarian): 47 µM
GI50 (SN12C renal): 15.3 µM
TGI (SN12C renal): 28.9 µM
GI50 (SNB-19 CNS): 15.7 µM
TGI (SNB-19 CNS): 29.3 µM
GI50 (SR leukemia): 13 µM
TGI (SR leukemia): 41.9 µM
GI50 (SW-620 colon): 17.5 µM
TGI (SW-620 colon): 34.3 µM
GI50 (T-47D breast): 13.4 µM
TGI (T-47D breast): 30.6 µM
GI50 (TK-10 renal): 18.7 µM
TGI (TK-10 renal): 33.5 µM
GI50 (U251 CNS): 14.6 µM
TGI (U251 CNS): 28.9 µM
GI50 (UACC-257 melanoma): 15.2 µM
TGI (UACC-257 melanoma): 28.7 µM
GI50 (UACC-62 melanoma): 11.9 µM
TGI (UACC-62 melanoma): 24.4 µM
